MIC and MBC data for 2 molecules are collected here from article PMC6150245 (Molecules : A Journal of Synthetic Chemistry and Natural …, 2017).

Converted amounts (≈) assume the structure as drawn. Bridge positions count the residues as written; N and C are the ends. Peptide text beside a SMILES is read from it. I, II: the chains in the order shown.

For orientation: MIC means the lowest concentration that inhibits growth of the organism. The MBC is the smallest concentration meeting the test's criterion for killing. A low value points to more potent killing.

In one test the test system is S. aureus ATCC25923. The test is described as follows: MIC, microdilution in MH broth (initial screening). Type of test: cell-based, Staphylococcus aureus. The note with it: 24 h, 37 °C, resazurin, triplicate. The procedure: The minimum inhibitory concentrations (MIC) were determined following the Clinical and Laboratory Standards Institute (CLSI) recommendations. Antibacterial and antifungal activity tests were performed using the microdilution method. For initial screening, peptides were tested against C. albicans ATCC18804, E. coli ATCC25922, and S. aureus ATCC25923. Briefly, bacterial cells in MH broth (80 μL aliquots containing 1.5 × 10^7 CFU) were incubated with synthetic peptides (serial dilution from 512 to 1 μM) dissolved in Milli-Q water. After incubation for 24 h at 37 °C, the microtiter plates were analyzed visually by addition of resazurin. For the antifungal assays, the culture medium was RPMI 1640 buffered with L-glutamine (pH 7.2), 0.165 M morpholinepropanesulfonic acid (MOPS), and 2% glucose. Cell suspensions (final concentration of 1 × 10^3–2.5 × 10^3 CFU/mL) were inoculated on a microdilution plate previously prepared with serially diluted synthetic peptides (128–1 μM). The plates were incubated for 48 h at 37 °C. Each assay was performed in triplicates. Additionally, amphotericin B and fluconazole were used as the control drugs. MIC was defined as the lowest concentration of peptide at which no growth was detected.
A general note: In broth dilution the organism is exposed to a series of concentrations in liquid medium.

A further test relates to K. pneumoniae NDM-1. Type of test: cell-based, Klebsiella pneumoniae. The note with it: for MIC: K. pneumoniae NDM-1, CAMHB, 24 h, 37 °C; for MBC: K. pneumoniae NDM-1, sub-culture on MH agar, 99.9% death. The procedure:
(§1) After confirming antibacterial activity, the peptides were tested against gram-positive and gram-negative multidrug-resistant bacteria, including strains of clinical origin. The peptides, p-BthTX-I, des-Lys^12/(p-BthTX-I)2, and Lys^13-(p-BthTX-I)2 were serially diluted (512–1 μM) in cation-adjusted BBL MH II broth (CAMHB; Becton, Dickson and Co., Sparks, MD, USA) as described by CLSI. Bacteria at 5.0 × 10^5 CFU/mL were added to the media and incubated for 24 h at 37 °C. […] Assays were performed in duplicates, and sterile broth was used as the negative control. To determine the minimal bactericidal concentration (MBC), 100 µL from each well of the MIC assay plates that inhibited bacterial growth were sub-cultured onto MH agar (MHA) plates. […] If the ratio of MBC/MIC was >4, the activity of the peptide was considered bacteriostatic, as described previously.

Test [1] relates to K. pneumoniae ATCCBAA1705. Type of test: cell-based, Klebsiella pneumoniae. The settings on record: for MIC: K. pneumoniae ATCCBAA1705 (KPC), CAMHB, 24 h, 37 °C, duplicate; for MBC: K. pneumoniae ATCCBAA1705, sub-culture on MH agar, 99.9% death. The procedure:
as §1

A further test relates to K. pneumoniae ATCC700603. Type of test: cell-based, Klebsiella pneumoniae. As to the method:
as §1

A further test has as its system S. aureus SA90. Type of test: cell-based, Staphylococcus aureus. As to the method:
as §1

Another test deals with E. coli ATCC35218. Type of test: cell-based, Escherichia coli. The note with it: for MIC: E. coli ATCC35218, CAMHB, 24 h, 37 °C, duplicate; for MBC: E. coli ATCC35218, sub-culture on MH agar, 99.9% death. The procedure: as §1
The next test has as its system E. coli CA4. Type of test: cell-based, Escherichia coli. The note with it: for MIC: E. coli CA4 (commensal), CAMHB, 24 h, 37 °C, duplicate; for MBC: E. coli CA4, sub-culture on MH agar, 99.9% death. As to the method: as §1

`CC(C)C[C@H](NC(=O)[C@H](Cc1c[nH]cn1)NC(=O)[C@H](Cc1ccc(O)cc1)NC(=O)[C@H](CCCNC(=N)N)NC(=O)[C@H](Cc1ccc(O)cc1)NC(=O)[C@H](CCCCN)NC(=O)[C@@H](N)CCCCN)C(=O)N[C@@H](CCCCN)C(=O)N1CCC[C@H]1C(=O)N[C@@H](Cc1ccccc1)C(=O)N[C@@H](CSSC[C@H](NC(=O)[C@H](Cc1ccccc1)NC(=O)[C@@H]1CCCN1C(=O)[C@H](CCCCN)NC(=O)[C@H](CC(C)C)NC(=O)[C@H](Cc1c[nH]cn1)NC(=O)[C@H](Cc1ccc(O)cc1)NC(=O)[C@H](CCCNC(=N)N)NC(=O)[C@H](Cc1ccc(O)cc1)NC(=O)[C@H](CCCCN)NC(=O)[C@@H](N)CCCCN)C(=O)N[C@@H](CCCCN)C(=O)N[C@@H](CCCCN)C(=O)O)C(=O)N[C@@H](CCCCN)C(=O)N[C@@H](CCCCN)C(=O)O` [(p-BthTX-I)2]: the MIC in the test on S. aureus ATCC25923 was found to be 64 µM (≈ 222 µg/mL); in the test with K. pneumoniae NDM-1, 256 µM (≈ 890 µg/mL); in test [1] it was 256 µM (≈ 890 µg/mL); in the test on K. pneumoniae ATCC700603 (K. pneumoniae ATCC700603 (SHV-18), CAMHB, 24 h, 37 °C) it was 64 µM (≈ 222 µg/mL); in the test with S. aureus SA90 (S. aureus SA90 (MRSA), CAMHB, 24 h, 37 °C), 128 µM (≈ 445 µg/mL); with E. coli ATCC35218, 512 µM (≈ 1780 µg/mL). The MIC against E. coli CA4 was found to be 256 µM (≈ 890 µg/mL). Also, the MBC was found to be 512 µM (≈ 1780 µg/mL) against K. pneumoniae NDM-1; 512 µM (≈ 1780 µg/mL) in test [1]; 64 µM (≈ 222 µg/mL) in the test on K. pneumoniae ATCC700603 (K. pneumoniae ATCC700603, sub-culture on MH agar, 99.9% death); 256 µM (≈ 890 µg/mL) in the test on S. aureus SA90 (S. aureus SA90, sub-culture on MH agar, 99.9% death); 512 µM (≈ 1780 µg/mL) with E. coli ATCC35218; 512 µM (≈ 1780 µg/mL) in the test on E. coli CA4.
As for `CC(C)C[C@H](NC(=O)[C@H](Cc1c[nH]cn1)NC(=O)[C@H](Cc1ccc(O)cc1)NC(=O)[C@H](CCCNC(=N)N)NC(=O)[C@H](Cc1ccc(O)cc1)NC(=O)[C@H](CCCCN)NC(=O)[C@@H](N)CCCCN)C(=O)N[C@@H](CCCCN)C(=O)N1CCC[C@H]1C(=O)N[C@@H](Cc1ccccc1)C(=O)N[C@@H](CSSC[C@H](NC(=O)[C@H](Cc1ccccc1)NC(=O)[C@@H]1CCCN1C(=O)[C@H](CCCCN)NC(=O)[C@H](CC(C)C)NC(=O)[C@H](Cc1c[nH]cn1)NC(=O)[C@H](Cc1ccc(O)cc1)NC(=O)[C@H](CCCNC(=N)N)NC(=O)[C@H](Cc1ccc(O)cc1)NC(=O)[C@H](CCCCN)NC(=O)[C@@H](N)CCCCN)C(=O)O)C(=O)O` [des-Lys^12/Lys^13-(p-BthTX-I)2] (I: H-KKYRYHLKPFC-OH / II: H-KKYRYHLKPFC-OH; disulfide I:11-II:11), the MIC came out at 128 µM (≈ 379 µg/mL) in the test with S. aureus ATCC25923; 256 µM (≈ 759 µg/mL) with K. pneumoniae NDM-1; 32 µM (≈ 94.8 µg/mL) in test [1]; 64 µM (≈ 190 µg/mL) with E. coli ATCC35218; 64 µM (≈ 190 µg/mL) against E. coli CA4. Besides, the MBC against K. pneumoniae NDM-1 is 512 µM (≈ 1520 µg/mL); in test [1], 64 µM (≈ 190 µg/mL); with E. coli ATCC35218 it was 256 µM (≈ 759 µg/mL); with E. coli CA4, 128 µM (≈ 379 µg/mL).
